# Patent publication US12042492B2 (priority 2020, dated 2024)
# “Also recorded” adds a separate entry of the source. Marks after values point to notes of the source that are not given here.
# Legend:
# [1] = tested on: Aβ40 and Aβ42 levels in mAPP N2a cells; experiment: Sandwich ELISA of soluble Aβ40 and Aβ42 levels in mAPP N2a cells; format: cell-based, mouse; settings: ligand 1-treated mAPP N2a cells vs untreated mAPP cells
# Description: ELISA Ligand based inhibition of BACE1 activity, Aβ 40 and 42. BACE1 activity, Levels of Aβ40 and 42. To determine whether ligand 1 lowers BACE1 activity and reducing the Aβ40 and Aβ42 levels, the inventors measured BACE1 activity, Aβ40 and Aβ42 levels in mutant APP cells (N2a+mutant cDNA transfected) treated with ligand 1 using Sandwich ELISA.
# The N2a cells grown for 6 days in a serum-free medium (1:1 mixture of DMEM and OptiMEM, plus penicillin and streptomycin (Invitrogen, Carlsbad, CA, USA) until the cells developed neuronal processes. As shown in (FIG. 10), these cells were used for 4 groups—one control group and 3 treatment groups. 1) untreated N2a cells (the control group), 2) N2a cells treated with ligand 1 (N2a+ligand 1), 3) N2a cells transfected mAPP with the (lipofectamine) (20 μM final concentration for 6 hrs (mAPP), 4) N2a cells transfected with mAPP cDNA for 6 hrs, treated with ligand 1 (mAPP+ligand 1 treatment group), N2a cells treated with ligand 1 for 24 hrs and then treated with the mAPP cDNA for 6 hrs (ligand 1+mAPP treatment group). […]
# ELISA Ligand based BACE1 inhibition of Aβ 40 and 42. […] For each sample, Aβ1-40 and Aβ1-42 were measured with commercial colorimetric ELISA kits (Biosource International, Camarillo, CA, USA) specific for human. […] Protein concentrations of the homogenates were determined following the […], and Aβ was expressed as pg Aβ/mg protein.
# N2a cells = experiment: qRT-PCR mRNA expression in N2a cells treated with ligand 1; format: cell-based, mouse
# Procedure: The N2a cells grown for 6 days in a serum-free medium (1:1 mixture of DMEM and OptiMEM, plus penicillin and streptomycin (Invitrogen, Carlsbad, CA, USA) until the cells developed neuronal processes. As shown in (FIG. 10), these cells were used for 4 groups—one control group and 3 treatment groups. 1) untreated N2a cells (the control group), 2) N2a cells treated with ligand 1 (N2a+ligand 1), 3) N2a cells transfected mAPP with the (lipofectamine) (20 μM final concentration for 6 hrs (mAPP), 4) N2a cells transfected with mAPP cDNA for 6 hrs, treated with ligand 1 (mAPP+ligand 1 treatment group), N2a cells treated with ligand 1 for 24 hrs and then treated with the mAPP cDNA for 6 hrs (ligand 1+mAPP treatment group). As shown in (FIG. 10), the inventors performed 4 independent cell cultures and treatments for all experiments (n=4).
# mRNA levels of mitochondrial dynamics and mitochondrial biogenesis and synaptic genes. Using the reagent TriZol (Invitrogen), the inventors isolated total RNA from 4 independent treatments of N2a cells (n=4) from control (untreated N2a cells) and experimental treatments (N2a cells treated with Ligand 1; N2a cells transfected with mAPP; N2a cells transfected with mAPP and then treated with Ligand 1. Using primer express Software (Applied Biosystems), the inventors designed the oligonucleotide primers for the housekeeping genes β-actin, GDPH; APP-related genes (APP, BACE1 and PSN1); mitochondrial structural genes; fission (Drp1 and Fis1); fusion genes (MFN1, MFN2, Opa1) (54), mitochondrial biogenesis genes (PGC1α, Nrf1, Nrf2, and Tfam) (Manczak et al., 2019), and synaptic proteins (SYN, PSD95 and MAP2). The primer sequences and amplicon sizes are listed in (Table 1). With SYBR-Green chemistry-based quantitative real-time RT-PCR, the inventors measured mRNA expression of the genes mentioned above as described by Manczak et al. 2019(54). Briefly, 2 μg of DNAse-treated total RNA was used as starting material, to which the inventors added 1 μl of oligo (dT), 1 μl of 10 mM dNTPs, 4 μl of 5× first strand buffer, 2 μl of 0.1 M DTT, and 1 μl RNAse outout. The reagents RNA, dT), and dNTPs were mixed first, then heated at 65° C. for 5 min, and finally chilled on ice until the remaining components were added. The samples were incubated at 42° C. for 2 min, and then 1 μl of Superscript II (40 U/μl) was added. The samples were then incubated at 42° C. for 50 min, at which time the reaction was inactivated by heating at 70° C. for 15 min.
# Quantitative real-time PCR amplification reactions were performed in N2a cells in an ABI Prism 7900 sequence detection system (Applied Biosystems, Foster City, CA) in a 25-μl volume of total reaction mixture. The reaction mixture consisted of 1×PCR buffer containing SYBR-Green; 3 mM MgCl2; 100 nm of each primer; 200 nm of dATP, dGTP, and dCTP each; 400 nm of dUTP; 0.01 U/μl of AmpErase UNG; and 0.05 U/μl of AmpliTaq Gold. A 20 ng cDNA template was added to each reaction mixture.
# The CT-values of β-actin was tested to determine the unregulated endogenous reference gene in N2a cells that were treated with Aβ and protective molecules, and in untreated N2a cells. In the latter case, the CT-value was similar in untreated and N2a cells treated with MTAs and Aβ. The CT-value is an important quantitative parameter in real-time PCR analysis as described in Gutala and Reddy (2004) (55). All RT-PCR reactions were carried out in triplicate, with no template control. The PCR conditions were: 50° C. for 2 min and 95° C. for 10 min, followed by 40 cycles of 95° C. for 15 sec and 60° C. for 1 min. The fluorescent spectra were recorded during the elongation phase of each PCR cycle. To distinguish specific amplicons from non-specific amplifications, a dissociation curve was generated. […]
# [2] = N2a + Ligand1 relative to untreated N2a cells
# [3] = N2a + Ligand1 relative to untreated N2a cells, negative = decrease
# [4] = ligand 1 treated N2a cells relative to untreated cells, size of the decrease
# [5] = ligand 1 treated N2a cells relative to untreated cells, size of the decrease, no statistical significance
substance,measurement,setting,value
"[(6As,8S,10aS,12aS)-10a, 12a-dimethyl-2-oxo-3,4,4a,4b,5,6,6a,7,8,9,10,10b,11,12-tetradecahydro-1H-naphtho[2,1-f]quinolin-8-yl] 4-[4-[bis(2-chloroethyl)amino]phenyl]butanoate [Ligand 1]",Aβ42 level,[1]; P=0.005,significantly lower; also recorded: reduced
same,Aβ40 level,"[1]; soluble, P=0.01",decreased; also recorded: reduced
same,mRNA fold change Mfn1,N2a cells; [2],1.1 fold
same,mRNA fold change Mfn2,N2a cells; [2],1.2 fold
same,mRNA fold change Nrf1,N2a cells; [2],1.2 fold
same,mRNA fold change Nrf2,N2a cells; [2],1.3 fold
same,mRNA fold change OPA1,N2a cells; [2],1.4 fold
same,mRNA fold change PSD95,N2a cells; [2],1.2 fold
same,mRNA fold change Synaptophysin,N2a cells; [2],1.4 fold
same,mRNA fold change TFAM,N2a cells; [2],1.2 fold
same,mRNA fold change PGC1a,"N2a cells; N2a + Ligand1 relative to untreated N2a cells, listed as Ligand1",1.6* fold
same,mRNA fold change PGC1a,"N2a cells; N2a + Ligand1 relative to untreated N2a cells, listed as ligand 1",1.6 fold
same,mRNA fold change APP,N2a cells; [3],−1.2 fold
same,mRNA fold change BACE1,N2a cells; [3],−1.8** fold
same,mRNA fold change Drp1,N2a cells; [3],−1.1 fold
same,mRNA fold change Fis1,N2a cells; [3],−1.1 fold
same,mRNA fold change Presenilin1,N2a cells; [3],−1.3 fold
same,"APP mRNA, fold decreased",N2a cells; [4],1.8 fold
same,"BACE1 mRNA, fold decreased",N2a cells; [4],1.2 fold
same,"PS1 mRNA, fold decreased",N2a cells; [4],1.3 fold
same,"Drp1 mRNA, fold reduced",N2a cells; [5],1.1 fold
same,"Fis1 mRNA, fold reduced",N2a cells; [5],1.1 fold
